Assay results taken from ChEMBL document CHEMBL3769367, “Orexin Receptor Antagonists: New Therapeutic Agents for the Treatment of Insomnia” (J Med Chem, 2016).

Assays:
[1] = Tmax in human at 1 to 1500 mg, po administered as single dose; format: ADME, organism-based; conditions: in vivo
[2] = Plasma protein binding in human; format: ADME, cell-free; conditions: read-out: PPB (converted)
[3] = Half life in human plasma at 1 to 1500 mg, po administered as single dose; format: ADME, organism-based
[4] = tested on: Canis familiaris; assay: Effect on sleep parameter in po dosed Beagle dog by EEG analysis; format: functional, Canis lupus familiaris
[5] = Ratio of drug level in brain to plasma in Wistar rat; format: ADME, cell-free; conditions: read-out: BPR
[6] = Half life in Beagle dog 1 mg/kg, iv; format: ADME, organism-based, Canis lupus familiaris; conditions: in vivo
[7] = Plasma protein binding in Beagle dog; format: ADME, cell-free, Canis lupus familiaris; conditions: read-out: PPB (converted)
[8] = Oral bioavailability in Wistar rat at 10 mg/kg; format: ADME, organism-based; conditions: in vivo
[9] = Oral bioavailability in Beagle dog at 3 mg/kg; format: ADME, organism-based, Canis lupus familiaris; conditions: in vivo
[10] = Half life in Wistar rat at 1 mg/kg, iv; format: ADME, organism-based; conditions: in vivo
[11] = Clearance in Beagle dog 1 mg/kg, iv; format: ADME, organism-based, Canis lupus familiaris; conditions: in vivo
[12] = Plasma protein binding in Wistar rat; format: ADME, cell-free; conditions: read-out: PPB (converted)
[13] = Clearance in Wistar rat at 1 mg/kg, iv; format: ADME, organism-based; conditions: in vivo
[14] = tested on: Rattus norvegicus; assay: Effect on sleep parameter in po dosed Wistar rat by EEG analysis; format: functional

COc1ccc(S(=O)(=O)N2CCC[C@H]2C(=O)Nc2cc(C)cc(C)c2)cc1 [ACT-462206] gave a Tmax [1] of 1.5 h, a fraction unbound [2] of 0.007 and a half-life [3] of 10 h. The Activity [4] was 100 mg/kg, the Kp [5] was 0.46 and the half-life [6] was 1.7 h. For the same molecule, the fraction unbound [7] was 0.011, the bioavailability [8] was 39% and the bioavailability [9] was 52%. For the same molecule, the half-life [10] was 1.9 h, the clearance [11] was 11 mL/min/kg and the fraction unbound [12] was 0.007. The clearance [13] was 29 mL/min/kg and the Activity [14] was 100 mg/kg.
